Assay results reported in patent publication US4774381A, “Herbicide resistant tobacco” (E. I. Du Pont de Nemours and Company, priority 1985, dated 1988).

Legend:
[1] = target: T1, acetolactate synthase (ALS), H1 extract (Nicotiana tabacum, UniProt P09114); assay: ALS activity assay in cell extracts; type: biochemical
T1 construct: ALS activity was then assayed in extracts prepared from these cell suspension cultures; endogenous in cells; host or cells: N. tabacum cv; Xanthi cell suspension cultures (H1 parental haploid line; +/+ segregants), 0-50% ammonium sulfate fraction of the extract
T1 sequence (P09114 92-664): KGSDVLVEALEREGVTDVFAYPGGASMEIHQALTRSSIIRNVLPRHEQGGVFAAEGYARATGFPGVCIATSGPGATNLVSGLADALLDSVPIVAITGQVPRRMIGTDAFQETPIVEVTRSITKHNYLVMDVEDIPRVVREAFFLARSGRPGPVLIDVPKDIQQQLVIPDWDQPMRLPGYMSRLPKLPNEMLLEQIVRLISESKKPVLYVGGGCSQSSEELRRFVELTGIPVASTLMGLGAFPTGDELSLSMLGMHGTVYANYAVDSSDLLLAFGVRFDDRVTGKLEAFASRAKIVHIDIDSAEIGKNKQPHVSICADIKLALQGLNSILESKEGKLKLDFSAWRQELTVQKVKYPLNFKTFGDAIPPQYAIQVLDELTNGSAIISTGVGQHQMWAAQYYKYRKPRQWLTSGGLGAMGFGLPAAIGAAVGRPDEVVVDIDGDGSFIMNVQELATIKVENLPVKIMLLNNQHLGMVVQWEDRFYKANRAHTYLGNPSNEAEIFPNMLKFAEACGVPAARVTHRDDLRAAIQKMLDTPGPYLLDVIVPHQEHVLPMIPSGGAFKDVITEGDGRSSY
Protocol: Cell suspension cultures of normal (H1) and homozygous mutant (Isolate 16) cell lines were washed in C1 liquid medium. After washing, cells were extracted in a 100 mM potassium phosphate buffer (pH 7.5) containing 0.5 mM MgCl2, 1 mM sodium pyruvate, 0.5 mM thiamine pyrophosphate, 10 micromolar flavine-adenine dinucleotide (FAD) and 10 percent (by volume) glycerol. Polyclar AT (BDH Chemicals Ltd) was added to a final concentration of 250 mg per gram fresh weight of tissue. After centrifugation at 27,000xg for 15 minutes at 4°, an equal volume of a saturated solution of amminium sulfate was added to the supernatant fraction. The resultant precipitate (representing a 0 to 50 percent ammonium sulfate fraction) was redissolved in 100 mM potassium phosphate buffer (pH 7.5) containing 0.5 mM MgCl2, 1 mM sodium pyruvate, and salts were removed by passage through a Sephadex G-25 (Pharmacia PD-10) column.
ALS activity was assayed in a total volume of 500 microliters containing 100 microliters of the column eluate, 65 mM potassium phosphate buffer (pH 7.5) containing 10 mM MgCl2, 40 mM sodium pyruvate, 250 micromolar thiamine pyrophosphate, 23 micromolar FAD, and 1, 5, 10, 50, 100, 500 or 1000 ppb chlorsulfuron or sulfometuron-methyl. After incubation at 30° for 90 minutes, 250 microliters of 6N H2 SO4 was added to each assay tube, and the tubes were incubated at 55° for 10 minutes to terminate the enzymatic reaction and achieve complete conversion of acetolactate to acetoin. Acetoin content was then measured by a modification of the procedure described by Westerfield, J. Biol. Chem. 161:495 (1945). To each tube was added sequentially 100 microliters 50 percent NaOH, 150 microliters 0.5 percent creatine, and 150 microliters 5 percent alpha-napthol (in 2.5N NaOH). Color development was accelerated by incubation at 55° for 10 minutes. Tubes were then centrifuged, and the optical density was read at 530 nm. Background optical densities, which were subtracted from the optical density values of the reactions, were determined for each extract from parallel assays to which the enzyme extract was added after the addition of 6N H2 SO4. Protein concentrations were measured with Bio-Rad Protein Assay reagent with bovine serum albumin as a standard. Data points and specific activities, which are set forth below and in FIG. 2, represent the average values of at least three independent determinations. ALS activities are presented in FIG. 2 as percent activity in the absence of herbicide.

[2] = system: homozygous mutant (S4) plants; assay: Foliar spray whole plant test; type: in vivo, Nicotiana tabacum
Protocol: (§1) Further studies of the effect of the S4 mutation on whole plant response to chlorsulfuron were conducted with plants of the parental variety and progeny of homozygous mutant and homozygous normal isolates (Nos. 16 and 1, respectively) of the previously described backcross program. Accordingly, plants of the latter two types were derived, but separated by four generations, from the initial S4 mutant plant regenerated from callus culture.
(§2) Plants at the 4-5 leaf stage were treated with foliar sprays of an aqueous solution containing 10% (v/v) acetone, 0.2% polyoxyethylene sorbitan monolaurate (Tween 20 ), and 1,3, 10, 30 or 100 ppm chlorsulfuron. Each plant received 5 mL of a spray solution. Two weeks after treatment, plants were evaluated for phytotoxicity and shoot heights were measured. […] At this lowest level of application, apical buds and youngest leaves of these sensitive plants were chlorotic. […] These symptoms were more pronounced with increasing chlorsulfuron concentrations. […] In contrast, homozygous mutant plants were unaffected by treatment with chlorsulfuron, even at the highest test concentration of 100 ppm.

[3] = system: parental and homozygous normal plants; assay: Foliar spray whole plant test; type: in vivo, Nicotiana tabacum; details: 5 mL spray
Protocol: as §1, §2

[4] = system: pea seedlings and root cultures; details: medium supplementation; cited from earlier work

`COc1nc(C)nc(NC(=O)NS(=O)(=O)c2ccccc2Cl)n1` [Chlorsulfuron, chlorsulfuron] showed a remaining ALS activity (% of uninhibited) at 0.01 ppm ([1]; 10 ppb, Isolate H1 (+), read-out: Uninhibited activity (%) in the Presence of Chlorsulfuron) of 40%, a remaining ALS activity (% of uninhibited) at 0.03 ppm ([1]; 30 ppb, Isolate H1 (+), read-out: Uninhibited activity (%) in the Presence of Chlorsulfuron) of 23% and a remaining ALS activity (% of uninhibited) at 0.1 ppm ([1]; 100 ppb, Isolate H1 (+), read-out: Uninhibited activity (%) in the Presence of Chlorsulfuron) of 18%. For the same compound, the IC50 ([1]; H1 cell line extract, read-out: concentration inhibiting ALS activity 50 percent (converted)) was about 14 nM, the “increase of resistance of plants by S4 mutation” value ([2]; homozygous state) was “at least 100 fold” and the “phytotoxicity two weeks after foliar spray” value (from here on “phytotoxicity two weeks”) ([2]; up to highest test concentration of 100 ppm chlorsulfuron) was “unaffected”. For the same compound, the “phytotoxicity two weeks” value ([3]; 1 ppm chlorsulfuron, 4-5 leaf stage) was “developed symptoms of phytotoxicity”, the “phytotoxicity two weeks” value ([3]; 3 ppm chlorsulfuron) was “chlorosis was more severe and growth retardation readily apparent” and the “phytotoxicity two weeks” value ([3]; 100 ppm chlorsulfuron) was “extreme growth inhibition, chlorosis, and necrosis”. The “reversal of growth inhibition” value [4] was “prevented by supplementation of the medium with isoleucine and valine”.
